# Data from patent US20080275078A1, “Pyrazolo[3,4-B] Pyridine Compounds and Their Use as Pde4 Inhibitors” (Glaxo Group Limited, priority 2004, published 2008).
# Experiments:
# [1] = target: T1, PDE4B (human recombinant) (Homo sapiens, UniProt Q07343); test: Inhibition of PDE4B activity (SPA or FP assay); format: biochemical; details: SPA or FP assay or similar; n=1 or average of 2 or more readings; range given for the listed group of Examples; read-out: PDE4B pIC50 (±about 0.5) (converted)
# T1 construct: made in house; host or cells: Saccharomyces cerevisiae strain GL62 (PDE-deficient yeast), 100,000xg supernatant of cell lysate, as described in WO 94/20079
# From the text: Human recombinant PDE4B, in particular the 2B splice variant thereof (HSPDE4B2B), is disclosed in WO 94/20079 and also M. M. McLaughlin et al., “A low Km, rolipram-sensitive, cAMP-specific phosphodiesterase from human brain: cloning and expression of cDNA, biochemical characterisation of recombinant protein, and tissue distribution of mRNA”, J. Biol. Chem., 1993, 268, 6470-6476. For example, in Example 1 of WO 94/20079, human recombinant PDE4B is described as being expressed in the PDE-deficient yeast Saccharomyces cerevisiae strain GL62, e.g. after induction by addition of 150 uM CuSO4, and 100,000×g supernatant fractions of yeast cell lysates are described for use in the harvesting of PDE4B enzyme.
# The ability of compounds to inhibit catalytic activity at PDE4B or 4D (human recombinant), PDE3 (from bovine aorta), PDE5 (human recombinant) or PDE6 (from bovine retina) can optionally be determined by Scintillation Proximity Assay (SPA) in a 96-well format. • Test compounds (as a solution in DMSO, preferably about 2 microlitre (ul) volume of DMSO solution) are preincubated at ambient temperature (room temperature, e.g. 19-23° C.) in Wallac Isoplates (code 1450-514) with PDE enzyme in 50 mM Tris-HCl buffer pH 7.5, 8.3 mM MgCl2, 1.7 mM EGTA, 0.05% (w/v) bovine serum albumin for 10-30 minutes (usually 30 minutes). The enzyme concentration is adjusted so that no more than 20% hydrolysis of the substrate defined below occurs in control wells without compound, during the incubation. For the PDE3, PDE4B and PDE4D assays, [5′,8-^3H]Adenosine 3′,5′-cyclic phosphate (Amersham Pharmacia Biotech, code TRK.559; or Amersham Biosciences UK Ltd, Pollards Wood, Chalfont St Giles, Buckinghamshire HP8 4SP, UK) is added to give 0.05 uCi per well and about 10 nM final concentration. For the PDE5 and PDE6 assays, [8-^3H]Guanosine 3′,5′-cyclic phosphate (Amersham Pharmacia Biotech, code TRK.392) is added to give 0.05 uCi per well and about 36 nM final concentration. Plates containing assay mixture, preferably approx. 100 ul volume of assay mixture, are mixed on an orbital shaker for 5 minutes and incubated at ambient temperature for 1 hour. Phosphodiesterase SPA beads (Amersham Pharmacia Biotech, code RPNQ 0150) are added (about 1 mg per well) to terminate the assay. Plates are sealed and shaken and allowed to stand at ambient temperature for 35 minutes to 1 hour (preferably 35 minutes) to allow the beads to settle. Bound radioactive product is measured using a WALLAC TRILUX 1450 Microbeta scintillation counter. For inhibition curves, 10 concentrations (e.g. 1.5 nM-30 uM) of each compound are assayed. Curves are analysed using ActivityBase and XLfit (ID Business Solutions Limited, 2 Ocean Court, Surrey Research Park, Guildford, Surrey GU2 7QB, United Kingdom) Results are expressed as pIC50 values.
# The ability of compounds to inhibit catalytic activity at PDE4B (human recombinant) or PDE4D (human recombinant) can optionally be determined by IMAP Fluorescence Polarisation (FP) assay (IMAP Explorer kit, available from Molecular Devices Corporation, Sunnydale, Calif., USA; Molecular Devices code: R8062) in a 384-well format.
# The IMAP FP assay is able to measure PDE activity in an homogenous, non-radioactive assay format. The FP assay uses the ability of immobilised trivalent metal cations, coated onto nanoparticles (tiny beads), to bind the phosphate group of Fl-AMP that is produced on the hydrolysis of fluorescein-labelled (Fl) cyclic adenosine mono-phosphate (Fl-cAMP) to the non-cyclic Fl-AMP form. […] Binding of Fl-AMP product to the beads (coated with the immobilised trivalent cations) slows the rotation of the bound Fl-AMP and leads to an increase in the fluorescence polarisation ratio of parallel to perpendicular light. Inhibition of the PDE reduces/inhibits this signal increase. […]
# [2] = tested on: dinitrofluorobenzene (DNFB)-induced delayed type hypersensitivity (DTH) response in pigs; test: In Vivo Assay A: pig model of atopic dermatitis, skin topical administration; details: 1% (w/w) cream formulation; p<0.05 by ANOVA
# From the text: The pig DTH (delayed type hypersensitivity) model of contact hypersensitivity utilizes the Th2-mediated inflammatory response in pig skin to mimic the pathology of atopic dermatitis in humans. The model measures the potential anti-inflammatory effect of compounds, topically-applied to the skin, on the acute DTH (delayed type hypersensitivity) response in castrated male Yorkshire pigs.
# In general in the assay, pigs (domestic Yorkshire pigs, 15-18 kg at time of sensitization, castrated males) are first sensitized by topical application of ca. 10% (w/v) dinitrofluorobenzene (DNFB) dissolved in DMSO:acetone:olive oil (ca. 1:5:3) (ca. 40 mg DNFB, 400 microlitre solution total) to the ears (outer) and groin (inner). The pigs are then challenged 12 days later with ca. 0.6% (w/v) DNFB applied to randomized sites on the shaved back of the pigs (ca. 90 micrograms/site; sites are identified and numbered by grid made with marking pen).
# On the day of challenge, the treatments are performed at the challenge sites at about 2 hours prior to and about 6 hours after challenge (for DMSO/acetone solutions/suspensions containing the PDE4 inhibitor, to maximize exposure to drug), or at about 30 minutes after and about 6 hours after challenge (for topical ointments or creams containing the PDE4 inhibitor, representing a more clinically relevant treatment protocol).
# One day (about 24 hrs) after challenge, and optionally again at ca. 48 hrs post challenge, test sites are visually evaluated for intensity and extent of erythema by measuring the diameter of the reaction at its widest point and assigning scores of 0 to 4 for each of erythema intensity and erythema extent. Induration (a measure of swelling) is also scored 0 to 4. Scores for erythema intensity, erythema extent and induration are assigned according to the following criteria: Intensity of Erythema: 0=normal, 1=minimal, barely visible, 2=mild, 3=moderate, 4=severe. Extent of Erythema (not raised): 0=no edema, 1=macules of pin head size, 2=lentil sized macules, 3=confluent macules, 4=diffuse over entire site. Induration (palpable): 0=normal, 1=nodules of pin head size, 2=doughy lentil sized nodules, 3=confluent firm nodules, 4=diffuse hard lesion. The summed visual score at ca. 24 hours includes the individual scores for erythema intensity, erythema extent, and induration; so the maximal summed score for each site would be 12. High summed scores can generally indicate a high inflammatory response. Visual scores are subject to some inaccuracy/error.
# Differences in the summed score between adjacent control (placebo) and treatment sites on the grids are calculated. This difference value is then used to determine the percent inhibition compared to the summed score for the control (placebo) sites. The more negative the difference value, the greater the calculated inhibition. Percent inhibition of (percent inhibition compared to) the mean summed score can be calculated.
# About 24 hours after challenge, treatment sites can optionally also be visually evaluated for lesion area.
# The anti-inflammatory effect of the compound 4-{[1-(aminocarbonyl)-4-piperidinyl]amino}-N-[(3,4-dimethylphenyl)methyl]-1-ethyl-1H-pyrazolo[3,4-b]pyridine-5-carboxamide (“Example 2 or 2A compound”), applied topically to the skin, on the acute DTH response in castrated male Yorkshire pigs is compared to that of another PDE4 inhibitor cipamfylline (BRL-61063) and the topical immunomodulator pimecrolimus.
# In the above assay, the Example 2 or 2A compound is topically administered: either (A) at ca. 2.5% (w/v) concentration in a solution of ca. 10% DMSO/90% acetone (ca. 50 microlitres or ca. 1.5 mg/site) at about 2 hours prior to and about 6 hours after the DNFB challenge; or (B) at ca. 0.5% (w/w) concentration in an ointment containing propylene glycol (PG)* (ca. 25 mg of formulation/site) at about 30 minutes after and about 6 hours after the DNFB challenge. […]
# COPD patients = details: roflumilast, Lipworth 2005; cited from earlier work
# T1 sequence (Q07343 1-564 isoform Q07343-2): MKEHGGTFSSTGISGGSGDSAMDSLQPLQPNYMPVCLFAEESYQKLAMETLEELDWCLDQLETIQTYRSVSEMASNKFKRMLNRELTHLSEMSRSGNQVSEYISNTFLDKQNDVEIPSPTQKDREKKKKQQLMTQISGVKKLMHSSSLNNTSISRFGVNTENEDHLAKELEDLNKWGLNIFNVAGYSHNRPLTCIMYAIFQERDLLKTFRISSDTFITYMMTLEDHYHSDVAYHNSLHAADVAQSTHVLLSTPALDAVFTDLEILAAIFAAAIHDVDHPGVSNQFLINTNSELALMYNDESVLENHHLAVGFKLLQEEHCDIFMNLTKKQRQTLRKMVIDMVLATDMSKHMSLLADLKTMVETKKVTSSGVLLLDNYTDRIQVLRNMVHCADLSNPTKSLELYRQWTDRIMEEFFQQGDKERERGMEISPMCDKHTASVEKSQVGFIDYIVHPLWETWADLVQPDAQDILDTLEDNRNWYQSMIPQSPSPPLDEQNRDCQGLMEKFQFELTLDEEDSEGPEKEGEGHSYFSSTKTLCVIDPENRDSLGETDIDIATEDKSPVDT
SMILES,IC50 [1] [nM],further results
"CCn1ncc2c(NC3CCN(C(N)=O)CC3)c(C(=O)NCc3ccc(C)cc3C)cnc21 [Example 1, 4-{[1-(aminocarbonyl)-4-piperidinyl]amino}-N-[(2,4-dimethylphenyl)methyl]-1-ethyl-1H-pyrazolo[3,4-b]pyridine-5-carboxamide]",0.631 to 0.794,–
"CCn1ncc2c(N[C@H]3CC[C@@H](C(N)=O)CC3)c(C(=O)NCc3ccc(C)cc3C)cnc21 [Example 45, 4-{[cis-4-(aminocarbonyl)cyclohexyl]amino}-N-[(2,4-dimethylphenyl)methyl]-1-ethyl-1H-pyrazolo[3,4-b]pyridine-5-carboxamide]",1.26 to 5.01,–
"CCn1ncc2c(N[C@H]3CC[C@H](C(N)=O)CC3)c(C(=O)NCc3ccc(C)c(C)c3)cnc21 [Example 9, 4-{[trans-4-(aminocarbonyl)cyclohexyl]amino}-N-[(3,4-dimethylphenyl)methyl]-1-ethyl-1H-pyrazolo[3,4-b]pyridine-5-carboxamide]",158 to 200,–
"CC[C@@H]1/C=C(\C)C[C@H](C)C[C@H](OC)[C@H]2O[C@@](O)(C(=O)C(=O)N3CCCC[C@H]3C(=O)O[C@H](/C(C)=C/[C@@H]3CC[C@H](Cl)[C@H](OC)C3)[C@H](C)[C@@H](O)CC1=O)[C@H](C)C[C@@H]2OC [pimecrolimus, reference compound]",–,inhibition of the summed scores [2]: about 29%
"CCn1ncc2c(N[C@H]3CC[C@@H](C(N)=O)CC3)c(C(=O)NCc3ccc(C)c(C)c3)cnc21 [Example 8, 4-{[cis-4-(aminocarbonyl)cyclohexyl]amino}-N-[(3,4-dimethylphenyl)methyl]-1-ethyl-1H-pyrazolo[3,4-b]pyridine-5-carboxamide]",1 to 3.16,–
"CCn1ncc2c(NC3CCC(C(N)=O)CC3)c(C(=O)NCc3ccc(C)cc3C)cnc21 (stereo not drawn) [Example 5, 4-{[4-(aminocarbonyl)cyclohexyl]amino}-N-[(2,4-dimethylphenyl)methyl]-1-ethyl-1H-pyrazolo[3,4-b]pyridine-5-carboxamide]",1 to 3.16,–
"CCn1ncc2c(N[C@H]3CC[C@H](C(N)=O)CC3)c(C(=O)NCc3ccc(C)cc3C)cnc21 [Example 46, 4-{[trans-4-(aminocarbonyl)cyclohexyl]amino}-N-[(2,4-dimethylphenyl)methyl]-1-ethyl-1H-pyrazolo[3,4-b]pyridine-5-carboxamide]",158 to 200,–
"CCn1ncc2c(NC3CCC(C(N)=O)CC3)c(C(=O)NCc3ccc(C)c(C)c3)cnc21 (stereo not drawn) [Example 4, 4-{[4-(aminocarbonyl)cyclohexyl]amino}-N-[(3,4-dimethylphenyl)methyl]-1-ethyl-1H-pyrazolo[3,4-b]pyridine-5-carboxamide]",1 to 3.16,–
"CCn1ncc2c(NC3CCN(C(N)=O)CC3)c(C(=O)NCc3ccc(OC)cc3)cnc21 [Example 3, 4-{[1-(aminocarbonyl)-4-piperidinyl]amino}-1-ethyl-N-{[4-(methyloxy)phenyl]methyl}-1H-pyrazolo[3,4-b]pyridine-5-carboxamide]",1 to 3.16,–
O=C(Nc1c(Cl)cncc1Cl)c1ccc(OC(F)F)c(OCC2CC2)c1 [roflumilast],–,FEV1 in COPD patients (COPD patients): small improvements in FEV1

# The next lines start with results.
IC50 [1] [nM],SMILES,further results
~10,"CCn1ncc2c(N[C@H]3CCN(C(N)=O)C3)c(C(=O)NCc3ccc(C)c(C)c3)cnc21 [Example 70, 4-{[(3S)-1-(aminocarbonyl)-3-pyrrolidinyl]amino}-N-[(3,4-dimethylphenyl)methyl]-1-ethyl-1H-pyrazolo[3,4-b]pyridine-5-carboxamide]",–
31.6 to 100,"CCn1ncc2c(N[C@@H]3CCN(C(N)=O)C3)c(C(=O)NCc3ccc(C)cc3C)cnc21 [Example 71, 4-{[(3R)-1-(aminocarbonyl)-3-pyrrolidinyl]amino}-N-[(2,4-dimethylphenyl)methyl]-1-ethyl-1H-pyrazolo[3,4-b]pyridine-5-carboxamide]",–
1.26 to 5.01,"CCn1ncc2c(N[C@H]3CC[C@@H](C(N)=O)CC3)c(C(=O)NCc3ccc(OC)cc3)cnc21 [Example 47, 4-{[cis-4-(aminocarbonyl)cyclohexyl]amino}-1-ethyl-N-{[4-(methyloxy)phenyl]methyl}-1H-pyrazolo[3,4-b]pyridine-5-carboxamide]",–
31.6 to 100,"CCn1ncc2c(N[C@@H]3CCN(C(N)=O)C3)c(C(=O)NCc3ccc(C)c(C)c3)cnc21 [Example 72, 4-{[(3R)-1-(aminocarbonyl)-3-pyrrolidinyl]amino}-N-[(3,4-dimethylphenyl)methyl]-1-ethyl-1H-pyrazolo[3,4-b]pyridine-5-carboxamide]",–
~10,"CCn1ncc2c(N[C@H]3CCN(C(N)=O)C3)c(C(=O)NCc3ccc(C)cc3C)cnc21 [Example 69, 4-{[(3S)-1-(aminocarbonyl)-3-pyrrolidinyl]amino}-N-[(2,4-dimethylphenyl)methyl]-1-ethyl-1H-pyrazolo[3,4-b]pyridine-5-carboxamide]",–
